According to ChEMBL document CHEMBL1201862, “PubChem BioAssay data set” (2004):
Activity calls are given as the source filed them.

Legend:
[1] = HPDE-C7 pancreatic duct cell viability loss – fluorescence, HTS (AID 430); type: functional, cell-based; details: Homo sapiens
[2] = viability loss of HPDE-C7K cells – cell-based, fluorescence, HTS, primary screen (AID 431); type: functional; details: Homo sapiens
[3] = biological target: T1, Corticotropin-releasing factor receptor 2/Corticotropin-releasing factor-binding protein (Homo sapiens, UniProt P24387+Q13324); test: Dose Response confirmation of uHTS hits for small molecule antagonists of the CRF-binding protein and CRF-R2 receptor complex.; type: functional; details: read-out: IC50_Mean
T1 sequence (Q13324 whole entry): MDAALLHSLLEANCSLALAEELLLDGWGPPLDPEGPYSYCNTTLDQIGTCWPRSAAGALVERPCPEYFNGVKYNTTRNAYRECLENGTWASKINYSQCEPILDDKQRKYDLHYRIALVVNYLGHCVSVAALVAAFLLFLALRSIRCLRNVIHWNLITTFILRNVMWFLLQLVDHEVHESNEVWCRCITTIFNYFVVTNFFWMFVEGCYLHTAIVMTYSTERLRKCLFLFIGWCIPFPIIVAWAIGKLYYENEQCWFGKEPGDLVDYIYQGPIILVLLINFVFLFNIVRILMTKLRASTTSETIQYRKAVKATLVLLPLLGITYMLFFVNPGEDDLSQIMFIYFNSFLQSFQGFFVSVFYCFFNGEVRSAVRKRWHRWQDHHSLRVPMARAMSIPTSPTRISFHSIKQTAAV
T1 sequence (P24387 whole entry): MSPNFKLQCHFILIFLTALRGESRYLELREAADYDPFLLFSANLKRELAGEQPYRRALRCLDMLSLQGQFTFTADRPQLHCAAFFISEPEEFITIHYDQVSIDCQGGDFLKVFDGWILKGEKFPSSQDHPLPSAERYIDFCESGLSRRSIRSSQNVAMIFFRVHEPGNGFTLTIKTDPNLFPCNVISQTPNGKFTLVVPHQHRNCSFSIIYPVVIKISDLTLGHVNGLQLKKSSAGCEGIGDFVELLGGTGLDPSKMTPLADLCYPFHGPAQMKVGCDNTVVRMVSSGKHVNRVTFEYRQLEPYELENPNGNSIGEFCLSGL

[4] = biological target: T1, Corticotropin-releasing factor receptor 2/Corticotropin-releasing factor-binding protein; test: activators of CRF receptor 2 with binding protein – uHTS hits, confirmation (AID 602473); type: functional; details: read-out: EC50_Mean
[5] = biological target: Glucose-6-phosphate 1-dehydrogenase (Homo sapiens, UniProt P11413); test: inhibition of Homo sapiens G6PD, dose series – biochemical, fluorescence, selectivity assay for P. falciparum G6PD inhibitor project, dose response (AID 504792); type: functional
Sequence of Glucose-6-phosphate 1-dehydrogenase (P11413 whole entry): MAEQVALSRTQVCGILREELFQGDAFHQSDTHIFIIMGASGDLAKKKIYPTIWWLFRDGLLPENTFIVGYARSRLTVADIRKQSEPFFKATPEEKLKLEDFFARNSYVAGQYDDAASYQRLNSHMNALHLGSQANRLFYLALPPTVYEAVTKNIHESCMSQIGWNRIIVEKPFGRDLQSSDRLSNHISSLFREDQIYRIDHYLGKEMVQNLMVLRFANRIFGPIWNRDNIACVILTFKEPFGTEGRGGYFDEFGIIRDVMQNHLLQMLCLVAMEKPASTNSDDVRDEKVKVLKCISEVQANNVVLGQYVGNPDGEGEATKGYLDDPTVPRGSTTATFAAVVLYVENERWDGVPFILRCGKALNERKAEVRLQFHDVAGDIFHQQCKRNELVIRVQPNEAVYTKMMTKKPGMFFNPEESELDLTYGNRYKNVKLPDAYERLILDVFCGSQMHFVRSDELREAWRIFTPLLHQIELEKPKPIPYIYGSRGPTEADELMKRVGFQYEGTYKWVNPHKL

Aminopeptidase N = biological target: T2, Aminopeptidase N (Plasmodium falciparum FcB1/Columbia, UniProt O96935); test: malaria alanyl aminopeptidase activity blockers – biochemical, fluorogenic H-Leu-NHMec substrate, 1536-well (AID 1445); design: species or system Plasmodium falciparum 3D7, 3D7
T2 sequence (O96935 whole entry): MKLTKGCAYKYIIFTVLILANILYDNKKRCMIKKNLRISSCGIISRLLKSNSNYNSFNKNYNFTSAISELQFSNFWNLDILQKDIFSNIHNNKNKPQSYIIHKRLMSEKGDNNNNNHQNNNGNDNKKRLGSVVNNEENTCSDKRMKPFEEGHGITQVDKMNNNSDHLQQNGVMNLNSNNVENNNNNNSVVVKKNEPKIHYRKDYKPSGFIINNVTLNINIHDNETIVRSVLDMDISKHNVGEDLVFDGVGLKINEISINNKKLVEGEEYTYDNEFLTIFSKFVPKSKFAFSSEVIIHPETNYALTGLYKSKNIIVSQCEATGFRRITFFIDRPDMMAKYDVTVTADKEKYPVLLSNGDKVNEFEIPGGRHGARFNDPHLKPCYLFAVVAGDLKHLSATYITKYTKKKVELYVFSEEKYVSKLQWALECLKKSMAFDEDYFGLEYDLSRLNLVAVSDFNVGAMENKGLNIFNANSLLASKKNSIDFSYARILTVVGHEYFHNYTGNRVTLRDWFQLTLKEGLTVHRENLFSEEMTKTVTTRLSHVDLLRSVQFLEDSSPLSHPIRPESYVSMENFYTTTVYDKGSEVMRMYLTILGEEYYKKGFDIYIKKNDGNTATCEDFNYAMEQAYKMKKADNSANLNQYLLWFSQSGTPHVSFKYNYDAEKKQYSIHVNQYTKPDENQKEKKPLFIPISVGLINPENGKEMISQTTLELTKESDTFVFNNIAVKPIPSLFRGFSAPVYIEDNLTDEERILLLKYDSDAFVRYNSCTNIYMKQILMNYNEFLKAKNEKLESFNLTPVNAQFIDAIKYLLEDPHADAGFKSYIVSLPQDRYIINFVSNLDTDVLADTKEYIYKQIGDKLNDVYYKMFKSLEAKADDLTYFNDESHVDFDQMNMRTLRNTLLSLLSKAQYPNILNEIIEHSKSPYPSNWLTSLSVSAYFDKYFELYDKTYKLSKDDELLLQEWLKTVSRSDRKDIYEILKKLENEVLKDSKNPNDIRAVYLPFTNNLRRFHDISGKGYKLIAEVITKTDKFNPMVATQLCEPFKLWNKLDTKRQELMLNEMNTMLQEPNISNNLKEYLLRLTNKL

HEK293 = test: EBV LMP1 TES2 canonical NF-kB signalling blockers – cell-based, HEK293, luciferase, cherry-pick, dose response (AID 588343); type: functional; details: Homo sapiens
[6] = Trypanosoma cruzi growth suppression in host cells – NIH3T3 host cells, beta-gal luminescence, confirmation (AID 2044); type: functional, cell-based;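 note: intracellular parasites grown in NIH/3T3 mouse fibroblasts as host cells; luminescent beta-galactosidase reporter signal from transgenic T. cruzi replicating inside host cells; inhibitors lower the luminescence signal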
[7] = NIH3T3 cell viability loss – ATP luminescence, mouse fibroblasts, counter-screen, dose response (AID 2010); type: functional, cell-based;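 note: cells exposed to compound for about 90 hours before reading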
[8] = biological target: T3, Carboxy-terminal domain RNA polymerase II polypeptide A small phosphatase 1 (Homo sapiens, UniProt Q9GZU7); test: CTDSP1 inhibitors, concentration-response, biochemical, absorbance readout, ultra-high-throughput screen actives (AID 540297); type: functional
T3 sequence (Q9GZU7 whole entry): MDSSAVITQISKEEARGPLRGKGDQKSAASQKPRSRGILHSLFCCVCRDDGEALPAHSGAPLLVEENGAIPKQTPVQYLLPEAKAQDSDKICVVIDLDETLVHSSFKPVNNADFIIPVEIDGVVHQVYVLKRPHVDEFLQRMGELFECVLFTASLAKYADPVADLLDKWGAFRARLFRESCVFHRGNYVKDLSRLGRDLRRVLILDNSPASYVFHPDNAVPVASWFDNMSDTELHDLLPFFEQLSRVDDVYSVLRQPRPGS

[9] = biological target: T4, Sentrin-specific protease 7 (Homo sapiens, UniProt Q9BQF6); type: functional;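 note: Luminescence-based dose-response confirmation of ultra-high-throughput screening hits, measuring inhibition of SENP7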
T4 sequence (Q9BQF6 whole entry): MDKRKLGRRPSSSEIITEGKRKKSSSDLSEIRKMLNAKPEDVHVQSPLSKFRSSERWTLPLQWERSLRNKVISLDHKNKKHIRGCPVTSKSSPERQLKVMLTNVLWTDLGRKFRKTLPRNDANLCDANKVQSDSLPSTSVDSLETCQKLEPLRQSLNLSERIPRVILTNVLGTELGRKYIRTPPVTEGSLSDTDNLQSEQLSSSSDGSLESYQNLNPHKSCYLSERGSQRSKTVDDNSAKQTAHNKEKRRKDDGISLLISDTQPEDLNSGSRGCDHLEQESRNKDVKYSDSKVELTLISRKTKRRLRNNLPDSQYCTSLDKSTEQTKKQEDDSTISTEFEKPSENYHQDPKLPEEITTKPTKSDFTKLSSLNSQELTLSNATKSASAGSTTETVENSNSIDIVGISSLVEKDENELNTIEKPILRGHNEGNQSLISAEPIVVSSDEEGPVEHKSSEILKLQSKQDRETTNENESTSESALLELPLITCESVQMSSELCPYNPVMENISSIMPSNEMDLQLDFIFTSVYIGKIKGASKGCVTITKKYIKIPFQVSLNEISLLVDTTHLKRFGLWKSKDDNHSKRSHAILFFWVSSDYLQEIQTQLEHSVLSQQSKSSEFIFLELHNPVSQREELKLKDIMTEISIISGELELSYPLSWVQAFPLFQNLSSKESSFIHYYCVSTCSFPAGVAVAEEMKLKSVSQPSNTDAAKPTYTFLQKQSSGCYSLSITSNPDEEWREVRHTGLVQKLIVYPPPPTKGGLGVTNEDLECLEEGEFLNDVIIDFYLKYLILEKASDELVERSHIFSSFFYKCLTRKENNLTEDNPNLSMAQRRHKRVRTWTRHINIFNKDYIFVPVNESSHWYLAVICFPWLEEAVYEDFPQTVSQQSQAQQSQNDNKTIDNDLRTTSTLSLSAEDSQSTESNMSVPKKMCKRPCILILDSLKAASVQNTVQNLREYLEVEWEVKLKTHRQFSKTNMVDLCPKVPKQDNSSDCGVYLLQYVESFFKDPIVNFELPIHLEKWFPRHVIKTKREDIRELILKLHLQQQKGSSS

[10] = biological target: T5, Sentrin-specific protease 6 (Homo sapiens, UniProt Q9GZR1); type: functional;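 note: Luminescence-based dose-response confirmatory assay of SENP6 inhibition, following up an ultra-high-throughput screen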
T5 sequence (Q9GZR1 whole entry): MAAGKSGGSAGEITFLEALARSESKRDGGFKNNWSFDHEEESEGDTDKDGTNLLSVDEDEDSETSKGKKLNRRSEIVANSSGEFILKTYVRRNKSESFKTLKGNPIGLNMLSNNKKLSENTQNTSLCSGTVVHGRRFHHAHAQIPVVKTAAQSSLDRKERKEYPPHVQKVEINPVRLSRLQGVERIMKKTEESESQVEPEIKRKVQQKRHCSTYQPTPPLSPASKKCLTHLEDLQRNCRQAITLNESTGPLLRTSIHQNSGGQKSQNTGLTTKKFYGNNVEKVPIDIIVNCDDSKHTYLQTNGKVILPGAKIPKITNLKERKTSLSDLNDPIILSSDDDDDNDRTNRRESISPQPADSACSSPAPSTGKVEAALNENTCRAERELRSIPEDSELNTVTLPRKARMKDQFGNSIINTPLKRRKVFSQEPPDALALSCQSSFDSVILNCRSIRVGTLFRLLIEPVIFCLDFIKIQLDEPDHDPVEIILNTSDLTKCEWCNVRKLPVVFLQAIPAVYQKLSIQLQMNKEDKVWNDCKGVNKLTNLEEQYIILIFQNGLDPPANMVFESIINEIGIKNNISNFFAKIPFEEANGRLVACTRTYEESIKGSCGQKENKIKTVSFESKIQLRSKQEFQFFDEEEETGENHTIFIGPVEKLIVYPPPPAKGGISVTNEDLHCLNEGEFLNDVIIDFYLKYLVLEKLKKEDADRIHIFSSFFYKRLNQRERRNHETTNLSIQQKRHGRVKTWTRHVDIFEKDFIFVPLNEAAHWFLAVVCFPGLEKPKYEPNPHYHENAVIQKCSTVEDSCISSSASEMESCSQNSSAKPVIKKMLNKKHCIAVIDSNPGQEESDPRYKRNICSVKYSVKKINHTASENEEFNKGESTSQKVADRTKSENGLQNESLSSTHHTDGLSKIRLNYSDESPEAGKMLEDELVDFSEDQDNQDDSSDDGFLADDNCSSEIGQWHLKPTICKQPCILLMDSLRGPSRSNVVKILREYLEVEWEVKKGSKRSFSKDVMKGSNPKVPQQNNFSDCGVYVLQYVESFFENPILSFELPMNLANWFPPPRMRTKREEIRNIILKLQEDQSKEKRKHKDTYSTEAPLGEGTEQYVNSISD

[11] = biological target: T6, Sentrin-specific protease 8 (Homo sapiens, UniProt Q96LD8); type: functional;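 note: luminescence read-out of SENP8 inhibition, dose-response confirmation following an ultra-high-throughput screen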
T6 sequence (Q96LD8 whole entry): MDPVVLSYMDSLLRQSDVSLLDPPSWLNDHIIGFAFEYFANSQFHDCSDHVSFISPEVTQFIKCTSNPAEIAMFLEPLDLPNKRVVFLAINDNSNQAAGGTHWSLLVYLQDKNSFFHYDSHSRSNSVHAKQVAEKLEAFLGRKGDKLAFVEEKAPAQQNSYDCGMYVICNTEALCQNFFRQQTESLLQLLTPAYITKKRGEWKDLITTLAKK

Nonstructural protein 1 = Nonstructural protein 1 (Influenza A virus, UniProt Q194T2); type: functional, Influenza A virus (A/California/07/2009(H1N1))
Sequence of Nonstructural protein 1 (Q194T2 whole entry): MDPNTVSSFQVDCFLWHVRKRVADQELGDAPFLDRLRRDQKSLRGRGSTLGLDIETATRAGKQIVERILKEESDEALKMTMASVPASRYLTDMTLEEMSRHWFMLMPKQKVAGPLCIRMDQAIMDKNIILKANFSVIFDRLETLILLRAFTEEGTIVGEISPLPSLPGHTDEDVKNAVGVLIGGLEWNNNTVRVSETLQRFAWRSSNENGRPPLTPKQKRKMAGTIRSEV

[12] = biological target: Heat shock protein HSP 90-alpha (Homo sapiens, UniProt P07900); type: functional, organism-based
Vero [13] = test: cells; type: functional, cell-based, Chlorocebus sabaeus; details: Chlorocebus sabaeus, Vero
Vero [14] = test: cells; type: functional, Chlorocebus sabaeus; details: Chlorocebus sabaeus, Vero

Compound: CN1CCC2(CC1)Nc1nc(SCc3ccc(Cl)cc3)nn1C1=C2CN(C)CC1
- EC50 [1]: > 20 µM (not active)
- EC50 [2]: > 20 µM (not active)
- IC50 [3]: > 47.1 µM (inactive)
- EC50 [4]: > 53 µM (inactive)

Compound: CC(=O)Nc1nonc1-n1nnc(C(=O)NCc2ccccc2)c1C
- EC50 [1]: > 20 µM (not active)
- EC50 [2]: > 20 µM (not active)

Compound: COc1cccc(CNc2ccc3[nH]c(O)nc3c2)c1OCc1ccc(F)cc1
- IC50 [5]: > 80 µM (inactive)

Compound: CCCN1C(=O)/C(=C/c2c(N3CCNC(=O)C3CC(=O)OC)nc3c(C)cccn3c2=O)SC1=S (stereo not drawn)
- IC50 (Aminopeptidase N): 68.1 µM (active)

Compound: CCn1c([N+](=O)[O-])nc2c1c(=O)[nH]c(=O)n2C
- IC50 [5]: > 80 µM (inactive)

Compound: COc1cc(/C=C(/C#N)c2nc3ccccc3[nH]2)ccc1OCc1ccc(C(=O)O)o1
- IC50 (Aminopeptidase N): 52.1 µM (active)

Compound: COc1ccc(CCn2c(NN=C3CCCC3)nc3c2c(=O)[nH]c(=O)n3C)cc1
- IC50 [5]: > 80 µM (inactive)

Compound: CCOc1ccc(NC(=O)c2ccc(N3CC4CC(C3)c3cccc(=O)n3C4)c(NC(=O)c3cccnc3)c2)cc1 (stereo not drawn)
- AC50 (HEK293): > 350 µM (inactive)

Compound: O=C(O)c1cccc(NC(S)=NC(NC(=O)c2ccccc2[N+](=O)[O-])C(Cl)(Cl)Cl)c1 (stereo not drawn)
- IC50 (Aminopeptidase N): 58.6 µM (active)

Compound: CC1=NN(c2nc(-c3ccc(C)cc3)cs2)C(=O)C1N=Nc1ccccc1O (stereo not drawn)
- IC50 (Aminopeptidase N): 3.37 µM (active)
- EC50 [6]: 1.63 µM (active)
- EC50 [7]: > 60 µM (not active)
- IC50 [8]: 3.69 µM (active)

Compound: CC(=O)Nc1nc(COc2ccc3ccccc3c2)cs1
- IC50 [9]: 5.88 µM (active)
- IC50 [10]: 8.61 µM (active)
- IC50 [11]: 9.93 µM (active)

Compound: CC(C)N1CCC2(CC1)N=C(c1ccc3c(c1)OCO3)CC(c1cc(Cl)ccc1O)N2 (stereo not drawn)
- EC50 [1]: 4.25 µM (active)
- EC50 [2]: 3.54 µM (active)

Compound: CC(=NNc1nc2ccccc2o1)c1ncccn1
- IC50 (Nonstructural protein 1): 0.739 µM (active)
- AC50 (HEK293): 1.23 µM (active)
- AC50 [12]: 1.97 µM (active)
- IC50 (Vero [13]): > 25 µM (active)
- CC50 (Vero [14]): 1.34 µM (active)

Compound: COc1ccc(C=C2OC(O)=C(C(C)=O)C2=O)cc1
- AC50 (HEK293): 6.16 µM (active)
